# Tested on: virus with the mutations M41L, K07R, T215F, K219Q
# Assay: Determination system for phenotypic resistances to antiretroviral drugs (renilla activity, recombinant viral clones)
# Type: cell-based, HIV
# Conditions: K219Q versus wild type virus, FIG. 2b
# Description: It can be schematically seen in FIGS. 1a and 1b how the viral particles are produced in culture supernatants during the 48 hours following transfection of the recombinat virus carrying viral sequences amplified from patients's plasma in 293T cells. The 293T cell line was obtained from the Deposit of the ATCC. The progeny of recombinant viruses are collected 48 hours after transfection in and used to infect the SSPA-B7 clone as target. This cellular clone was obtained by the applicant from the MT-2 cell line by means of transfection of an expression vector of the gene CCR5 provided with a resistance marker for Genetycin. Expression of both major viral coreceptors (CCR5 as a transgene and CXCR4 naturally) allows the infection with viral carrying different envelopes that use CCR5, CXCR4 receptors or both. […] The capacity of the viruses to complete a replication cycle is quantified by measuring the luciferase activity in the target cells. When phenotypic resistance to protease inhibitors is analyzed, the drug should be added to the producer cell (293-T) because viral morphogenesis driven by the protease is generated in this step of the viral cycle. In contrast, phenotypic resistance towards inhibitors of reverse transcriptase and of entry is measured by adding the drugs to the infected cells because such processes (entry and retrotranscription) take place in the target cell. […]
compound,measurement,value
Cc1cn([C@H]2C[C@H](N=[N+]=[N-])[C@@H](CO)O2)c(=O)[nH]c1=O [AZT],Fold (AZT resistance),36

# Reference: patent publication US20110212434A1, “NOVEL HIV-BASED RECOMBINANT VIRAL CLONES AND USE THEREOF IN ANALYTICAL METHODS” (priority 2004, published 2011)
